Structures can show the parent of a compound that is named as a salt. Where two headings read alike, the source gives them in different places.

Experiment [1] addresses T1, dopamine transporter (Rattus norvegicus, UniProt P23977).
T1 construct: Corpus striatum from male Wistar rats (150-200 g) is homogenized; from tissue; host or cells: corpus striatum of male Wistar rats
Briefly: In vitro inhibition of ^3 H-WIN 35428 binding (corpus striatum). More on the design: species or system rat (male Wistar). The text has this:
The compounds of the present invention have been tested for their ability to bind to the dopamine transporter in the following tests for in vitro and in vivo inhibition of ^3 H-WIN 35428.
In vitro inhibition of ^3 H-WIN 35428 binding
Dopamine transporters/uptake sites on nerve terminals presumably function to terminate neuronal signaling by removing dopamine from the synaptic cleft. The activity or presence of the dopamine transporter integral protein can be measured in vitro with synaptosomal uptake of ^3 H-dopamine or membrane binding assays with ^3 H-ligands known to bind to the transporter.
Numerous ligands of several structural types have been reported to bind at the dopamine uptake site, but it remains questionable whether their binding sites are identical to that of cocaine.
Tissue preparation: Preparations are performed at 0°-4° C. unless otherwise indicated. Corpus striatum from male Wistar rats (150-200 g) is homogenized for 5-10 sec in 10 ml NaH2 PO4 (50 mM, pH 7.4) using an Ultra-Turrax homogenizer. The suspension is centrifuged at 27,000×g for 15 min. The supernatant is discarded and the pellet is resuspended in 50 mM NaH2 PO4, pH 7.4 (1000 ml per g of original tissue) and used for binding assays.
Assay: Aliquots of 0.5 ml tissue are added to […] of ^3 H-WIN 35428 (1 nM, final concentration), mixed and incubated for 60 min at 2° C. Non-specific binding is determined using cocaine ([…], final concentration). After incubation the samples are added 5 ml of ice-cold buffer and poured directly onto Whatman GF/C glass fibre filters under suction and immediately washed with 5 ml ice-cold buffer. The amount of radioactivity on the filters is determined by conventional liquid scintillation counting. Specific binding is total binding minus non-specific binding.
25-75% inhibition of specific binding must be obtained, before calculation of an IC50. The test value is given as IC50 (the concentration (μM) of the test substance which inhibits the specific binding of ^3 H-WIN 35428 by 50%).

Experiment [2] has as its system immobility time of mice suspended by the tail. The experiment is described as follows: Tail Suspension. Particulars: Mus musculus, 0.5 h, oral, 30 min before test, dose reducing the immobility to 100 sec. The class given is in vivo, mice (female NMRI). Here is the method:
A decrease in the immobility time by mice suspended in their tail is seen after systemic administration of central stimulants and by antidepressants (Steru, L., Chermat, R., Thierry, B. & Simon, P. (1985) The tail suspension test: A new method for screening antidepressants in mice. Psychopharmacology 85:367-370.).
Female NMRI mice (20-25 g) habituated to the room (12 hours light/dark) for at least 16 hours and housed 25 per cage are used. The mice are suspended by the tail with adhesive tape to a rod 30 cm above the lab. bench 30 min after an oral administation of vehicle or drug. For the next 6 min the accumulated duration of immobility defined as no movements by the body or extremities (however head movements are not defined as movements) are noted, Six mice per dose are used.
Saline or vehicle treated mice have immobility time scores between 160-180 sec in average. An ED50 -value is calculated by graphical interpolation from at least 3 doses as the dose reducing the immobility to 100 sec.

In experiment [3] the target is T2, dopamine transporter (Mus musculus, UniProt Q61327). Briefly: In vivo inhibition of ^3 H-WIN 35428 binding (striatum). More on the design: from tissue; host or cells: striatum of living female NMRI mice; species or system mice (female NMRI). Particulars: ip, mice, inhibition of specific ^3 H-WIN 35428 binding in striatum. Here is the method: All test substances used are solutions or suspensions prepared in 10% TWEEN 80. Groups of three female NMRI mice (25 g) are injected i.p. with the test substance. […] Tissues are weighed and dissolved for 36 h with 1 ml 2% sodium-laurylsulfat. The solubilized tissue is then added 2 ml of scintillation cocktail, and the amount of radioactivity per mg of tissue is counted by conventional liquid scintillation counting. Groups of untreated mice serves as controls.
T2 sequence (Q61327 whole entry): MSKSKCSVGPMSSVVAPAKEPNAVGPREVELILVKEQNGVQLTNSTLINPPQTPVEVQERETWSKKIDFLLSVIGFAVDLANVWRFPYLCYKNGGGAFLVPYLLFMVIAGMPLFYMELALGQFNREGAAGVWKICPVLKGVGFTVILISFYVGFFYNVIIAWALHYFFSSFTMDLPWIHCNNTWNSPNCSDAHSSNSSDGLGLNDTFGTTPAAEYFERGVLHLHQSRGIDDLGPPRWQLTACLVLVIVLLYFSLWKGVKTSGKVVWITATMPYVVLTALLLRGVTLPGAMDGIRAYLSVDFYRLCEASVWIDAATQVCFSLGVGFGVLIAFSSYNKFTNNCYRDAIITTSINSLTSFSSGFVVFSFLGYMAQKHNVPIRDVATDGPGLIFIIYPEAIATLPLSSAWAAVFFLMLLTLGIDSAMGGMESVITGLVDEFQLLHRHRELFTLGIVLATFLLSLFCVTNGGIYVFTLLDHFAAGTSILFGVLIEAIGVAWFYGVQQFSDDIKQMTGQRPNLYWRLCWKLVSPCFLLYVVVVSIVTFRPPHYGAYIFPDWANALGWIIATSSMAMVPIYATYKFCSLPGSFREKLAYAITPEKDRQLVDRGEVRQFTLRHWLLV
The ED50 value is determined from dose response curves.
ED50 =(administered dose, mg/kg)×1/(C0 /Cx -1), where C0 is specific binding in controls and Cx is the specific binding in mice treated with test substance.

The target of experiment [4] is T2, dopamine transporter. Conditions: cited from earlier work.
Where [5] appears, read: rat corpus striatum, ^3 H-WIN 35428 1 nM, 60 min at 2° C., read-out: in vitro IC50.

T1 sequence (P23977 whole entry): as the sequence (Q61327 whole entry) above, with P21S, V57A, S194A, R600H, V619L counted along it

Broadly, the IC50 is the concentration at which inhibition is half-maximal. Usually ED50 stands for the midpoint of the dose-response relation. A lower ED50 goes with an effect at a small dose. Turning to `CN1[C@H]2CC[C@@H]1[C@H](C=NOCc1ccccc1)[C@@H](c1ccc(Cl)c(Cl)c1)C2` [(1R,2R,3S)-3-(3,4-dichlorophenyl)-tropane-2-O-benzyl-aldoxime, HCl], the IC50 on dopamine transporter [1] (setting [5]) came out at 76 nM. For the same compound, the values for the ED50 (in experiment [2]; at dopamine transporter [3]) were 2 mg/kg and over 10 mg/kg, respectively.
`COC(=O)CON=C[C@@H]1[C@@H](c2ccc(Cl)c(Cl)c2)C[C@@H]2CC[C@H]1N2C` [(1R,2R,3S)-3-(3,4-dichlorophenyl)tropane-2-O-methoxycarbonylmethyl-aldoxime] yielded an ED50 in experiment [2] of 0.25 mg/kg.
For `C#CCON=C[C@@H]1[C@@H](c2ccc(Cl)c(Cl)c2)C[C@@H]2CC[C@H]1N2C` [(1R,2R,3S)-3-(3,4-Dichlorophenyl)tropane-2-O-(2-propynyl)-aldoxime hydrochloride], at dopamine transporter [1] (setting [5]), the IC50 was 19 nM.
Turning to `CON=C[C@@H]1[C@@H](c2ccc(Cl)cc2)C[C@@H]2CC[C@H]1N2C` [(1R,2R,3S)-3-(4-chlorophenyl)tropane-2-O-methylaldoxime hydrochloride], the IC50 on dopamine transporter [1] (setting [5]) worked out at 48 nM. Besides, the results for the 50% effective dose (ED50) (in experiment [2]; at dopamine transporter [3]) were 0.43 mg/kg and 1 mg/kg, respectively.
On to `CON=C[C@@H]1[C@@H](c2ccc(C)cc2)C[C@@H]2CC[C@H]1N2C` [(1R,2R,3S)-3-(4-methylphenyl)tropane-2-O-methyl-aldoxime hydrochloride], for which the IC50 at dopamine transporter [1] (setting [5]) worked out at 42 nM.
With `CN1[C@H]2CC[C@@H]1[C@@H](C=NOCc1ccccc1)[C@@H](c1ccc(Cl)c(Cl)c1)C2` [(1R,2S,3S)-3-(3,4-dichlorophenyl)tropane-2-O-benzyl-aldoxime, hydrochloride], it took a dose of 0.94 mg/kg to reach the 50% effect level in experiment [2] (ED50).
Regarding `CN1[C@H]2CC[C@@H]1[C@@H](C=NO)[C@@H](c1ccc(Cl)c(Cl)c1)C2` [(1R,2S,3S)-3-(3,4-dichlorophenyl)tropane-2-aldoxime], the IC50 at dopamine transporter [1] came to 2 nM. Also, the ED50 in experiment [2] is 0.27 mg/kg; at dopamine transporter [3] it was 0.56 mg/kg.
`CN1[C@H]2CC[C@@H]1[C@H](C=NO)[C@@H](c1ccc(Cl)c(Cl)c1)C2` [(1R,2R,3S)-3-(3,4-Dichlorophenyl)tropane-2-aldoxime] had an IC50 at dopamine transporter [1] of 3.4 nM. For the same compound, the ED50 in experiment [2] amounted to 0.41 mg/kg; at dopamine transporter [3] it was 3.8 mg/kg.
For `C=CCON=C[C@@H]1[C@@H](c2ccc(Cl)c(Cl)c2)C[C@@H]2CC[C@H]1N2C` [(1R,2R,3S)-3-(3,4-dichlorophenyl)-tropane-2-O-(2-propenyl)-aldoxime], it took a dose of 0.23 mg/kg to reach the 50% effect level in experiment [2] (ED50).
Compound `CN1[C@H]2CC[C@@H]1[C@H](C=NO)[C@@H](c1ccc(Cl)cc1)C2` [(1R,2R,3S)-3-(4-chlorophenyl)tropane-2-aldoxime] displayed an IC50 at dopamine transporter [1] of 13 nM. The ED50 came out at 0.19 mg/kg in experiment [2] and 1.05 mg/kg at dopamine transporter [3].
On to `CN1[C@H]2CC[C@@H]1[C@H](C=NOCC1CC1)[C@@H](c1ccc(Cl)c(Cl)c1)C2` [(1R,2R,3S)-3-(3,4-Dichlorophenyl)tropane-2-O-cyclopropylmethyl-aldoxime hydrochloride], for which the IC50 on dopamine transporter [1] (setting [5]) was found to be 20 nM.
Compound `CN1[C@H]2CC[C@@H]1[C@H](C=NOCC1CC1)[C@@H](c1ccc(Cl)c(Cl)c1)C2` [(1R,2R,3S)-3-(3,4-dichlorophenyl)-tropane-2-O-cyclopropylmethyl-aldoxime] displayed an ED50 in experiment [2] of 0.7 mg/kg.
In turn, `C#CCON=C[C@@H]1[C@@H](c2ccc(Cl)c(Cl)c2)C[C@@H]2CC[C@H]1N2C` [(1R,2R,3S)-3-(3,4-dichlorophenyl)-tropane-2-O-(2-propynyl)-aldoxime] showed an ED50 in experiment [2] of 0.04 mg/kg.
For the compound `Fc1ccc(C(OCCN2CCN(CCCc3ccccc3)CC2)c2ccc(F)cc2)cc1` [GBR 12909], the “prevention of specific binding of ^3 H-WIN 35428 in vivo” value at dopamine transporter [4] is on record as “partly or completely prevented”.
Regarding `CC(C)CON=C[C@@H]1[C@@H](c2ccc(Cl)c(Cl)c2)C[C@@H]2CC[C@H]1N2C` [(1R,2R,3S)-3-(3,4-Dichlorophenyl)tropane-2-O-(2-methylpropyl)-aldoxime hydrochloride], the IC50 at dopamine transporter [1] (setting [5]) stood at 56 nM.
For the compound `CON=C[C@H]1[C@@H](c2ccc(Cl)c(Cl)c2)C[C@@H]2CC[C@H]1N2C` [(1R,2S,3S)-3-(3,4-dichlorophenyl)tropane-2-O-methyl-aldoxime], the IC50 at dopamine transporter [1] (setting [5]) worked out at 1.8 nM. In addition, the ED50 was found to be 0.4 mg/kg in experiment [2] and 0.37 mg/kg at dopamine transporter [3].
On to `C=CCON=C[C@@H]1[C@@H](c2ccc(Cl)c(Cl)c2)C[C@@H]2CC[C@H]1N2C` [(1R,2R,3S)-3-(3,4-Dichlorophenyl)tropane-2-O-(2-propenyl)-aldoxime hydrochloride], for which, at dopamine transporter [1] (setting [5]), the IC50 amounted to 22 nM.
As for `CCOC(=O)CON=C[C@@H]1[C@@H](c2ccc(Cl)c(Cl)c2)C[C@@H]2CC[C@H]1N2C` [(1R,2R,3S)-3-(3,4-Dichlorophenyl)tropane-2-O-ethoxycarbonylmethyl-aldoxime,hydrochloride], the IC50 on dopamine transporter [1] (setting [5]) amounted to 24 nM. Besides, the ED50 on dopamine transporter [3] was over 10 mg/kg.
For the compound `CC(C)CON=C[C@@H]1[C@@H](c2ccc(Cl)c(Cl)c2)C[C@@H]2CC[C@H]1N2C` [(1R,2R,3S)-3-(3,4-dichlorophenyl)-tropane-2-O-(2-methylpropyl)-aldoxime], the ED50 in experiment [2] turned out to be 0.8 mg/kg.
